Measurements as given in PMC3674748, “High-level expression and characterization of a chimeric lipase from Rhizopus oryzae for biodiesel production” (Biotechnology for Biofuels, 2013).

Assays:
mROL = biological target: T1, mROL (Rhizopus arrhizus, UniProt P61872); assay: residual activity after heat treatment, pNPP assay; format: biochemical; conditions: turnover only; 1 h pre-incubation at 40 °C
T1 sequence (P61872 124-392): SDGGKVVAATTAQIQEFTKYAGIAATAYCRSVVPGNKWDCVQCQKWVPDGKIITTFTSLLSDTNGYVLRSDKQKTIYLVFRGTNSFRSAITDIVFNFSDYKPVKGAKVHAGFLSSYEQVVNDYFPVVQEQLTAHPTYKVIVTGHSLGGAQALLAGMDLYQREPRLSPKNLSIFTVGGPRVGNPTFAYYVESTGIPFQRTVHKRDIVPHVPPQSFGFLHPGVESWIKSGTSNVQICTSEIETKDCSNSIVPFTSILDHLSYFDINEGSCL

r28ROL = biological target: T2, r28ROL (Rhizopus arrhizus, UniProt P61872); assay: interfacial kinetics, p-nitrophenol release from emulsified pNPP; format: biochemical; conditions: heterogeneous (emulsion) medium; free purified enzyme; value not given
T2 construct: Pichia pastoris GS115, secreted, purified; proROL without signal peptide cleaved Kex2-like; about 37 kDa on SDS-PAGE
T2 sequence (P61872 96-392): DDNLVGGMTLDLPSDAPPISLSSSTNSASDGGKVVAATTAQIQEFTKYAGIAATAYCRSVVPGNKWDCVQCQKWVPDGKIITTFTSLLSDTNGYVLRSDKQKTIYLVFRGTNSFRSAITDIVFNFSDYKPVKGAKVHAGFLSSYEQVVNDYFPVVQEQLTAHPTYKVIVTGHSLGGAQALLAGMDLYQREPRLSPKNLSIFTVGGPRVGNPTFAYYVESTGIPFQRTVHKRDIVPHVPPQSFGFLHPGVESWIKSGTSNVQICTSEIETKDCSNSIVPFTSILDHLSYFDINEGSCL

SMILES: CCCCCCCCCCCCCCCC(=O)Oc1ccc([N+](=O)[O-])cc1 [p-nitrophenyl palmitate]
- residual activity after heat treatment, pNPP assay (mROL): thermostability of the mature R. oryzae lipase by P. pastoris in this study
- Km* (r28ROL): The kinetic parameters were determined using p-nitrophenyl palmitate (pNPP) as substrate.
